Experimental data reported in patent US20240103015A1, “METHODS FOR ASSAYING SLC34A2 EXPRESSION IN MUSCLE TISSUE AND TREATING FACIOSCAPULOHUMERAL MUSCULAR DYSTROPHY” (University of Maryland, Baltimore, priority 2022, published 2024).

Tests used:
SLC34A2 [1] = settings: epithelia and cancers; cited from earlier work
[2] = molecular target: T1, SLC34A2 in FSHD xenografts (Homo sapiens, UniProt O95436); experiment: IVIS imaging of living mice carrying xenografts after injection of fluorescent antibody; assay type: in vivo, mouse; settings: living mice (IVIS) and frozen sections
T1 construct: from tissue; host or cells: Xenografts of human FSHD myoblasts (C6, 15A; controls A4, 15V) in the tibialis anterior of NRG mice
T1 sequence (O95436 1-689 isoform O95436-2 D633G): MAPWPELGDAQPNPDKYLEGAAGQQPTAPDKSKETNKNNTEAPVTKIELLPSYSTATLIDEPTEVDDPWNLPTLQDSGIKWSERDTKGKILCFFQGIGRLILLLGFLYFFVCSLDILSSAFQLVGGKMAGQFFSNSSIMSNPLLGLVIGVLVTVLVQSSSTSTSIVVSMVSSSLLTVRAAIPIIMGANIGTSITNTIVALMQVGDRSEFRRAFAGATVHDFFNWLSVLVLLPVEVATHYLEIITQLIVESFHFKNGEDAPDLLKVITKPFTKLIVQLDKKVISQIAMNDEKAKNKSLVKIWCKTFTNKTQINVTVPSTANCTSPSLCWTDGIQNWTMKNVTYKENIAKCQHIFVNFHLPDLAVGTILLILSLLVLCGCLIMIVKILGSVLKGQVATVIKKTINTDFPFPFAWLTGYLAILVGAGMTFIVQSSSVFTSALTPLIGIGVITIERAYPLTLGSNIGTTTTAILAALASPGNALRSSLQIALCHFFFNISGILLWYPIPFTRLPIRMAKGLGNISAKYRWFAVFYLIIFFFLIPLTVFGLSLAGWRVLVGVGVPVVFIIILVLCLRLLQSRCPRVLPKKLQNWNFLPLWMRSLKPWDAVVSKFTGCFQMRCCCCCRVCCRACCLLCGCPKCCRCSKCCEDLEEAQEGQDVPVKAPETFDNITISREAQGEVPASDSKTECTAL
From the text: (ii): Given the level of variability we observe in our xenografts, and the small numbers of FSHD myofibers in the grafts generated by some of the FSHD cell lines we have been studying, we thought it important to be able to monitor the diseased myofibers in living mice. Our approach is to inject mice with an infrared fluorescent version of a monoclonal antibody to SLC34A2, MX-35, that recognizes an extracellular epitope of the protein and that has been used clinically with patients with ovarian cancer. This approach should allow us to estimate the lifetime of the fibers once they become positive for SLC34A2, and, using different IR fluorophores, what the rate of appearance of newly positive fibers is in our grafts. It could also be used to test potential treatments for FSHD both in mice and in clinical trials with FSHD patients.
Injection and Imaging: Mice will be injected IV with fluorescent mAb or Fab fragments either through the tail vein or retroorbitally, with 150 μg of the biotinylated antibodyfluorophore conjugate in […]. Imaging in a Xenogen IVIS Spectrum Optical In Vivo imaging System (Perkin Elmer), will begin 2 hr later, repeated daily for 3 days, and at longer intervals thereafter. Repeated injections will also be done at regular intervals, to be determined, based on the levels of the antibody-conjugate remaining in circulation.

SLC34A2 [3] = molecular target: T2, SLC34A2 (Homo sapiens, UniProt O95436, D634G); experiment: Immunoprecipitation of SLC34A2 from extracts of FSHD muscle cells in culture; assay type: binding
T2 construct: from tissue; host or cells: Xenografts of human FSHD myoblasts (C6, 15A; controls A4, 15V) in the tibialis anterior of NRG mice
T2 sequence (O95436 1-689 isoform O95436-2 D633G): T1 sequence (O95436 1-689 isoform O95436-2 D633G)
From the text: FIG. 13. Immunoblots of FSHD and control myotubes with antibodies to the C- and N-termini of SLC34A2 (A) and after immunoprecipitation with MX35 (B), followed by blotting.

SLC34A2 [4] = molecular target: T2, SLC34A2; experiment: Immunolabeling of living FSHD (C6) and control (A4) myotubes; assay type: binding; settings: FSHD (C6) vs control (A4) myotubes
From the text: FIG. 14. Immunolabeling of living FSHD (C6) and control (A4) myotubes with MX35 and control IgG. DAPI was used as a counterstain (blue). Bound MX35 and control IgG were recognized with Alexa-568 labeled goat anti-mouse IgG (red).

SLC34A2 [5] = molecular target: T2, SLC34A2; experiment: Immunofluorescent labeling of frozen sections of xenografts with MX35; assay type: binding; settings: FSHD (C6) xenografts in Tibialis anterior of NRG mice
From the text: (§1) Antibodies: MX35 is a mouse mAb from the Sloan-Kettering Research Institute. Biotinylation and conjugation of MX35 or its Fab fragments, to Alexa fluorophores from InVitrogen/ThermoFisher, will follow manufacturer's instructions. Rabbit mAbs to the N- and C-terminal regions of SLC34A2 (Cell Signaling) are used at 1:100 dilutions. Fluorescent secondary antibodies and streptavidin are available commercially.
(§2) Immunofluorescence: Mice will be euthanized and blood samples taken. Muscles will be collected and either snap frozen or processed for PCR or immunoblotting. Frozen muscles will be-sectioned on a cryostat and labeled for biotinylated MX35 with fluorescent streptavidin or antibodies to biotin. Double labeling with rabbit anti-SLC34A2 antibodies will be performed to confirm the identity of positive fibers. Additional labeling with human-specific antibodies (e.g., to β-spectrin, lamin followed by isoform-specific secondary antibodies will be used to confirm the identify of fibers of human origin in the xenografts, as: necessary.
(§3) Results: We used immortalized C6 myoblasts (14) to generate xenografts in the Tibialis anterior muscles of NRG mice. Cross sections of the graft show similar immunofluorescent labeling by MX35 and a rabbit Ab to the C-terminus of SLC34A2 (FIG. 6). […]

SLC34A2 [6] = molecular target: T3, SLC34A2 (Homo sapiens, UniProt O95436); experiment: as above; assay type: binding; settings: control grafts generated with A4 cells
T3 construct: from tissue; host or cells: Xenografts of human FSHD myoblasts (C6, 15A; controls A4, 15V) in the tibialis anterior of NRG mice
T3 sequence (O95436 1-689 isoform O95436-2 D633G): T1 sequence (O95436 1-689 isoform O95436-2 D633G)
From the text: as §1, §2, §3

[7] = system: SLC34A2 protein in C6 (FSHD) myotubes; experiment: Immunoblot of SLC34A2 protein in cultured FSHD myotubes treated with p38 kinase inhibitors; assay type: cell-based, human; settings: for expression of the SLC34A2 protein: cultured C6 (FSHD) myotubes
From the text: (i): We have adapted and improved our procedures to assay for SLC34A2 mRNA and protein in myotubes of immortalized myoblasts derived from FSHD and healthy individuals. To establish the validity of our assays, we use losmapimod and other p38 kinase inhibitors.

[8] = system: DUX4 target genes (MBD3L2, LEUTX, SLC34A2); experiment: qPCR of DUX4 target gene mRNAs in FSHD xenografts of treated mice; assay type: in vivo, mouse
Procedure: Xenografts are treated starting at 5 weeks after initial engraftment. Dosage is 10 mg/kg BID, injected IP.

[9] = system: SLC34A2 protein at the surface of FSHD myotubes; experiment: Surface labeling of SLC34A2 protein on FSHD myotubes with and without losmapimod; assay type: cell-based, human
From the text: FIG. 20. Labeling of SLC34A2 protein at the surface of FSHD myotubes, with and without treatment with losmapimod. […] FIG. 21. Relative intensities of surface labeling of SLC34A2 in FSHD myotubes with and without losmapimod treatment, as in FIG. 20, normalized to the desmin signal in each ROI. *, p<0.05.

[10] = system: DUX4, SLC34A2 and other downstream gene products of DUX4; experiment: Relative mRNA expression of DUX4 and downstream genes in FSHD myotubes with and without losmapimod; assay type: cell-based, human
From the text: FIG. 22. Relative mRNA expression of DUX4, SLC34A2, and other downstream gene products of DUX4, in the presence and absence of losmapimod. *, p<0.05, **, p<0.01.

SLC34A2 [11] = settings: cited from earlier work
[12] = 10 mg/kg BID IP from 5 weeks after engraftment

Compound	binding to SLC34A2 (SLC34A2 [1])	detection of antibody-tagged fibers in grafts [2]	immunoprecipitation of SLC34A2 (SLC34A2 [3])	labeling of the surface of living myotubes (SLC34A2 [4])	recognition of SLC34A2 in xenograft sections (SLC34A2 [5])	labeling of control graft sections (SLC34A2 [6])	expression of the SLC34A2 protein [7]	expression of the mRNAs encoding DUX4 target genes, including SLC34A2 [8]	LEUTX reduction in expression [8, 12]	MBD3L2 reduction in expression [8, 12]	SLC34A2 reduction in expression [8, 12] [%]	SLC34A2 protein level ([7]; cultured FSHD myotubes, immunoblots) [fold]	surface labeling signal of SLC34A2 protein [9]	mRNAs encoding DUX4, SLC34A2 and other gene products downstream of DUX4 [10]	expression of SLC34A2 (SLC34A2 [11])
MX35	bind SLC34A2 present in epithelia and cancers	can be detected in FSHD but not control grafts	can immunoprecipitated SLC34A2	specifically labels the surface of intact living FSHD myotubes, but not control, healthy myotubes	recognizes SLC34A2 in mature FSHD skeletal muscle	no labeling	–	–	–	–	–	–	–	–	–
CC(C)(C)Cn1c(N)nc2ccc(-c3[nH]c(C(C)(C)C)nc3-c3ccc(F)cc3)nc21 [LY222820, ralimetinib]	–	–	–	–	–	–	Decreased expression	reduces expression	60-70%	60-70%	41	–	–	–	–
Cc1c(F)cc(C(=O)NC2CC2)cc1-c1ccc(C(=O)NCC(C)(C)C)cn1 [losmapimod]	–	–	–	–	–	–	Decreased expression	–	–	–	–	−2	reduces this signal significantly	reduces the mRNAs encoding DUX4 and SLC34A2	reduces the expression of SLC34A2
